The record followed here is article PMC8124228, “New Hybrids Based on Curcumin and Resveratrol: Synthesis, Cytotoxicity and Antiproliferative Activity against Colorectal Cancer Cells” (Molecules, 2021).

Data set [1] concerns SW620 cells (metastatic derivative of SW480). Briefly: Sulforhodamine B (SRB) cytotoxicity assay, SW620. The data set is classed as cell-based, human. The settings on record: for SI (selectivity index): IC50 CHO-K1 / IC50 SW620; for IC50: Homo sapiens, SW-620, SRB, mean ± SE. How it is done:
(§1) To determine the cytotoxic effect of the synthesized hybrids, they were evaluated against SW480 human colon adenocarcinoma cells, its metastatic derivative SW620 and the non-malignant CHO-K1 cell line, through the sulforhodamine B assay. In this experiment, 5-FU was also included as the reference drug, as well as the parental subunits (curcumin and resveratrol) and the equimolar mixture of these. Cytotoxicity was reported as 50% inhibitory concentration (IC50 values).
(§2) Biological assays were performed using an adenocarcinoma colon cancer cell line (SW480), its metastatic derivative (SW620) and non-malignant cells (CHO-K1). These were obtained from The European Collection of Authenticated Cell Cultures (ECACC, England) and maintained in Dulbecco’s Modified Eagle Medium, supplemented with 10% heat-inactivated (56 °C) horse serum, 1% penicillin/streptomycin and 1% non-essential amino acids (Gibco Invitrogen, Carlsbad, USA). For all experiments, horse serum was reduced to 3%, and the medium was supplemented with […], 5 ng/mL selenium and […] (ITS-defined medium; Gibco, Invitrogen, Carlsbad, CA, USA).
(§3) Cytotoxicity of the synthesized hybrids, lead and reference compounds was evaluated through Sulforhodamine B (SRB) assay, a colorimetric test that is based on staining of total cellular protein of adherent cells. Cells were seeded to a final density of 20,000 cells/well in 96-well tissue culture plates and incubated at 37 °C in a humidified atmosphere at 5% CO2. All cultures were allowed to grow for 24 h, and afterward they were treated with DMSO (vehicle control 1%) or increasing concentrations (0.01–200 µM) of the synthesized hybrids, as well as curcumin and resveratrol (lead compounds), the equimolar mixture of these and 5-fluorouracil (5-FU; the standard drug). After treatment, cells were fixed with trichloroacetic acid (50% v/v) (MERCK) for a period of 1 h at 4 °C. Cell proteins were determined by staining with 0.4% (w/v) SRB (Sigma-Aldrich, United States), and then they were washed with 1% acetic acid for the removal of unbound SRB and left for air-drying. Protein bound SRB was solubilized in 10 mM Tris-base and the absorbance was measured at 492 nm in a microplate reader (Mindray MR-96A). All experiments were performed at least in triplicate.

For data set [2], the system named is SW480 human colon adenocarcinoma cells. Briefly: Sulforhodamine B (SRB) cytotoxicity assay, SW480. The data set is classed as cell-based. The settings on record: for SI (selectivity index): IC50 CHO-K1 / IC50 SW480; for IC50: Homo sapiens, SRB, mean ± SE. How it is done:
as §1, §2, §3

The subject of data set [3] is non-malignant CHO-K1 cell line. Kind of data set: Sulforhodamine B (SRB) cytotoxicity assay, non-malignant cells. The class given is cell-based. The settings on record: Cricetulus griseus, mean ± SE. How it is done:
as §1, §2, §3
On the technique in general: The SRB assay estimates cell density from bound dye.

With `COc1cc(/C=C/C(=O)CC(=O)/C=C/c2ccc(O)c(OC)c2)ccc1O` [Curcumin], the “SI (selectivity index)” value in data set [1] (24 h) worked out at 0.12; in data set [1] (48 h) it was 1.63; in data set [2] (24 h), 0.24; in data set [2] (48 h), 0.40.

For the molecule `COc1ccc(/C=C/c2ccc(C(=O)/C=C/c3ccc(O)c(OC)c3)cc2)cc1` [Hybrid 3b, (E)-3-(4-hydroxy-3-methoxyphenyl)-1-(4-((E)-4-methoxystyryl)phenyl)prop-2-en-1-one], the melting point (in general, the temperature of the solid-liquid transition) fell in the range of 187 to 190 °C.

As to `COc1cc(/C=C/C(=O)c2ccc(/C=C/c3ccc([N+](=O)[O-])cc3)cc2)ccc1O` [Hybrid 3c, (E)-3-(4-hydroxy-3-methoxyphenyl)-1-(4-((E)-4-nitrostyryl)phenyl)prop-2-en-1-one], the melting point was 227 to 230 °C. Further, in data set [1] (24 h), the IC50 – broadly, the concentration needed to halve the response being measured – was greater than 3000 µM. Moreover, the IC50 in data set [1] (48 h) was greater than 3000 µM. Moreover, the “SI (selectivity index)” value in data set [2] (24 h) is greater than 100. Besides, the “SI (selectivity index)” value in data set [2] (48 h) is reported as greater than 15. Also, in data set [2] (SW480, 24 h, 24 h), 27.5 ± 2 µM corresponded to half-maximal inhibition (IC50). The IC50 in data set [2] (SW480, 48 h, 48 h) was greater than 200 µM. This molecule came in with an IC50 in data set [3] (24 h) greater than 3000 µM. The molecule also had an IC50 in data set [3] (48 h) greater than 3000 µM.

As for `COc1cc(/C=C/C(=O)c2ccc(/C=C/c3cccc(OC)c3OC)cc2)ccc1O` [Hybrid 3d, (E)-1-(4-((E)-2,3-Dimethoxystyryl)phenyl)-3-(4-hydroxy-3-methoxyphenyl)prop-2-en-1-one], the melting point lay within 63 to 65 °C. For the same molecule, in data set [1] (24 h), the “SI (selectivity index)” value came out at 0.44 and half-maximal inhibition (IC50) required 70.5 ± 3.8 µM. In data set [1] (48 h), the “SI (selectivity index)” value is on record as 0.48 and it took 26.1 ± 4.24 µM to reach half-maximal inhibition (IC50). Besides, in data set [2] (24 h), the “SI (selectivity index)” value amounted to 0.91. The “SI (selectivity index)” value in data set [2] (48 h) is 0.49. The same molecule showed a concentration for half-maximal inhibition (IC50) in data set [2] (SW480, 24 h, 24 h) of 34.1 ± 3.92 µM. The molecule further displayed an IC50 in data set [2] (SW480, 48 h, 48 h) of 25.2 ± 3.54 µM. This molecule also yielded an IC50 in data set [3] (24 h) of 31 ± 2.93 µM. Moreover, the 50% inhibitory concentration (IC50) in data set [3] (48 h) stood at 12.4 ± 3.41 µM.

As for `COc1ccc(OC)c(/C=C/c2ccc(C(=O)/C=C/c3ccc(O)c(OC)c3)cc2)c1` [Hybrid 3f, (E)-1-(4-((E)-2,5-Dimethoxystyryl)phenyl)-3-(4-hydroxy-3-methoxyphenyl)prop-2-en-1-one], the melting point was in the range of 47 to 51 °C. Also, in data set [1] (24 h), the “SI (selectivity index)” value is given as 2.36 and half-maximal inhibition (IC50) required 47.4 ± 10.5 µM. Moreover, in data set [1] (48 h), the “SI (selectivity index)” value worked out at 0.86 and the concentration for half-maximal inhibition (IC50) came to 27.6 ± 4.99 µM. Besides, the “SI (selectivity index)” value in data set [2] (24 h) is 1.33. Moreover, in data set [2] (48 h), the “SI (selectivity index)” value is reported as 0.27. In data set [2] (SW480, 24 h, 24 h), this molecule had a half-inhibitory concentration (IC50) of 84.4 ± 5.45 µM. The molecule further came in with an IC50 in data set [2] (SW480, 48 h, 48 h) of 88.6 ± 1.84 µM. The IC50 in data set [3] (24 h) was 112 ± 15.8 µM. The molecule also yielded an IC50 in data set [3] (48 h) of 23.9 ± 4.01 µM.

On to `COc1cc(/C=C/C(=O)c2ccc(/C=C/c3c(OC)cccc3OC)cc2)ccc1O` [Hybrid 3g, (E)-1-(4-((E)-2,6-Dimethoxystyryl)phenyl)-3-(4-hydroxy-3-methoxyphenyl)prop-2-en-1-one], for which the melting point is 87 to 90 °C. In addition, in data set [1] (24 h), the “SI (selectivity index)” value was 2.82 and the midpoint of inhibition, the IC50, lay at 33.7 ± 4.2 µM. In addition, in data set [1] (48 h), the “SI (selectivity index)” value turned out to be 1.17 and the 50% inhibitory concentration (IC50) was determined as 27.6 ± 5.21 µM. In addition, in data set [2] (24 h), the “SI (selectivity index)” value is listed as 11.1. Besides, the “SI (selectivity index)” value in data set [2] (48 h) was 0.83. Besides, the concentration for half-maximal inhibition (IC50) in data set [2] (SW480, 24 h, 24 h) was 8.55 ± 2.47 µM. For the same molecule, in data set [2] (SW480, 48 h, 48 h), it took 39.1 ± 5.68 µM to reach half-maximal inhibition (IC50). Moreover, it took 95 ± 1.67 µM to reach half-maximal inhibition in data set [3] (24 h) (IC50). In data set [3] (48 h), 32.4 ± 5.16 µM corresponded to half-maximal inhibition (IC50).

Consider `COc1cc(/C=C/c2ccc(C(=O)/C=C/c3ccc(O)c(OC)c3)cc2)cc(OC)c1` [Hybrid 3h, (E)-1-(4-((E)-3,5-Dimethoxystyryl)phenyl)-3-(4-hydroxy-3-methoxyphenyl)prop-2-en-1-one], for which the melting point fell in the range of 49 to 51 °C. In data set [1] (24 h), the “SI (selectivity index)” value amounted to 1.60 and 61 ± 12.8 µM corresponded to half-maximal inhibition (IC50). In addition, in data set [1] (48 h), the “SI (selectivity index)” value was found to be 1.08 and the concentration for half-maximal inhibition (IC50) was 21.4 ± 3.29 µM. For the same molecule, the “SI (selectivity index)” value in data set [2] (24 h) worked out at 2.06. Moreover, the “SI (selectivity index)” value in data set [2] (48 h) stood at 0.93. In addition, the IC50 in data set [2] (SW480, 24 h, 24 h) amounted to 47.2 ± 8.39 µM. This molecule also displayed an IC50 in data set [2] (SW480, 48 h, 48 h) of 24.9 ± 1.65 µM. Also, half-maximal inhibition in data set [3] (24 h) (IC50) was put at 97.4 ± 2.62 µM. The molecule also gave an IC50 in data set [3] (48 h) of 23.2 ± 4.07 µM.

Consider `COc1cc(/C=C/C(=O)c2ccc(/C=C/c3ccc(O)c(OC)c3)cc2)ccc1O` [Hybrid 3j, (E)-3-(4-Hydroxy-3-methoxyphenyl)-1-(4-((E)-4-hydroxy-3-methoxystyryl)phenyl)prop-2-en-1-one], for which the melting point lay within 142 to 146 °C. Besides, in data set [1] (24 h), the “SI (selectivity index)” value was determined as 1.50 and the IC50 was 28.1 ± 4.27 µM. In data set [1] (48 h), the “SI (selectivity index)” value amounted to 0.84 and the IC50 was found to be 28.8 ± 4.57 µM. Further, the “SI (selectivity index)” value in data set [2] (24 h) stood at 5.28. The “SI (selectivity index)” value in data set [2] (48 h) was determined as 0.59. In data set [2] (SW480, 24 h, 24 h), this molecule yielded an IC50 of 7.98 ± 1.53 µM. This molecule displayed a half-inhibitory concentration (IC50) in data set [2] (SW480, 48 h, 48 h) of 41.1 ± 7.8 µM. Besides, the IC50 in data set [3] (24 h) amounted to 42.1 ± 4.85 µM. The IC50 in data set [3] (48 h) amounted to 24.3 ± 5.21 µM.

Molecule `COc1cc(/C=C/C(=O)c2ccc(/C=C/c3cc(OC)c(O)c(OC)c3)cc2)ccc1O` [Hybrid 3l, (E)-1-(4-((E)-4-Hydroxy-3,5-dimethoxystyryl)phenyl)-3-(4-hydroxy-3-methoxyphenyl)prop-2-en-1-one] had a melting point of 86 to 88 °C. Moreover, in data set [1] (24 h), the “SI (selectivity index)” value is 2.63 and the IC50 worked out at 34.2 ± 5.09 µM. Besides, in data set [1] (48 h), the “SI (selectivity index)” value stood at 0.83 and the 50% inhibitory concentration (IC50) came out at 29.8 ± 3.68 µM. Further, the “SI (selectivity index)” value in data set [2] (24 h) is listed as 1.42. Besides, the “SI (selectivity index)” value in data set [2] (48 h) was found to be 0.48. The molecule also registered an IC50 in data set [2] (SW480, 24 h, 24 h) of 63.5 ± 8.16 µM. In data set [2] (SW480, 48 h, 48 h), this molecule displayed an IC50 of 51.8 ± 5.85 µM. Further, in data set [3] (24 h), the IC50 worked out at 90 ± 8.55 µM. Also, the IC50 in data set [3] (48 h) was 24.8 ± 5.53 µM.

Take `O=c1[nH]cc(F)c(=O)[nH]1` [Hybrid 5-FU, 5-fluorouracil, reference compound]: the “SI (selectivity index)” value in data set [1] (24 h) is 0.59; in data set [1] (48 h), 0.96; in data set [2] (24 h) it was 0.35; in data set [2] (48 h) it was 0.99.

In the case of `Oc1ccc(/C=C/c2cc(O)cc(O)c2)cc1` [Resveratrol], the “SI (selectivity index)” value in data set [1] (24 h) is recorded as 0.22; in data set [1] (48 h), 0.45; in data set [2] (24 h) it was 0.77; in data set [2] (48 h), 0.52. Besides, the half-inhibitory concentration (IC50) in data set [1] (24 h) worked out at 549 ± 38.5 µM; in data set [1] (48 h), 143 ± 4.03 µM; in data set [2] (SW480, 24 h, 24 h), 154 ± 10.6 µM; in data set [2] (SW480, 48 h, 48 h), 123 ± 4.48 µM; in data set [3] (24 h) it was 118 ± 8.54 µM; in data set [3] (48 h), 64 ± 8.92 µM.
